From paper PMC6934184, “Selective DNA-PKcs inhibition extends the therapeutic index of localized radiotherapy and chemotherapy” (The Journal of Clinical Investigation, 2019) come the findings set out here.

The test concerns the target T1, BRSK2 (Homo sapiens, UniProt Q8IWQ3).
T1 construct: purchased Thermo Fisher Scientific (Life Technologies) SelectScreen
Description: SelectScreen LanthaScreen. It is filed as binding. The following applies: read-out: % displacement. Put shortly: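 SelectScreen broad panel; activity (Z'LYTE, Adapta) plus binding formats. ATP: Km app for CSF1R Z'LYTE; 10 for CAMK1 Adapta. Readout = % per kinase.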
On the technique in general: In TR-FRET formats the signal depends on donor and acceptor labels being close together.

Structures are written as SMILES.

T1 sequence (Q8IWQ3 whole entry): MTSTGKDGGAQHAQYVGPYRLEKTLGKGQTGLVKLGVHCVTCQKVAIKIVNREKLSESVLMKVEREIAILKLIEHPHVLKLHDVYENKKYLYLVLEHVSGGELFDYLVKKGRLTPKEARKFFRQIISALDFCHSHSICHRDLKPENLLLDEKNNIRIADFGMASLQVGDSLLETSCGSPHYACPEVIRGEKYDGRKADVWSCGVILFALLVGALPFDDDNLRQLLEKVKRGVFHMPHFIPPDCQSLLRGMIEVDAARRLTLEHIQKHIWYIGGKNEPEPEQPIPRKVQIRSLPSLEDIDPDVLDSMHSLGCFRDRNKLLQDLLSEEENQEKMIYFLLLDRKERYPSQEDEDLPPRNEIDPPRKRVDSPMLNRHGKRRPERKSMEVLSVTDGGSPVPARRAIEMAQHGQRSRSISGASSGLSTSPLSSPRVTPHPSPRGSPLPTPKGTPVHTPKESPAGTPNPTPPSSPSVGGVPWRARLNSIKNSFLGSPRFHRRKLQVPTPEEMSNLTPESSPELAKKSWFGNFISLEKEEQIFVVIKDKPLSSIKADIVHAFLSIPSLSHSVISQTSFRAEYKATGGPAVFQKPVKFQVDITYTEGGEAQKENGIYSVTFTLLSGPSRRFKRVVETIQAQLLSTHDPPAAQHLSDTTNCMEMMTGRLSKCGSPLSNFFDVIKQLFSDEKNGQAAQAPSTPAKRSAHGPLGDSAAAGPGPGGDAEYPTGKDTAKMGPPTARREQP

As to `CN(C(=O)CN1CCOCC1)c1ccc2sc3c(-c4cccc5c(=O)cc(N6CC7CCC(C6)O7)oc45)cccc3c2c1` [NU5455], the inhibition at 1 µM came out at 1.2%.
